The values that follow come from ChEMBL document CHEMBL3785073, “Antiviral Indolosesquiterpenoid Xiamycins C-E from a Halophilic Actinomycete” (J Nat Prod, 2016).

pEC50: −log10 of the molar value. The source made the active and inactive calls. The calls are words filed in the database; no cut-off is given here.

The pEC50 is −log10 of the EC50, conventionally taken in molar units. The CC50 is the concentration at which the toxic effect on the cells reaches its halfway point.

In data set [1] the test system is Porcine epidemic diarrhea virus. Nature of the data set: Antiviral activity against PEDV infected in African green monkey Vero cells assessed as reduction in virus-induced cytopathic effect after 72 hrs by MTT assay. The format is functional, cell-based. In general terms: Damage to the host cells serves as the signal in cytopathic effect assays.
Data set [2] in a line: Cytotoxicity against African green monkey Vero cells after 48 hrs by MTT assay. It counts as cell-based. The settings on record: chlorocebus sabaeus. On the technique in general: Tetrazolium assays rely on reduction of a dye to a coloured formazan, in cell work by metabolically active cells.
Data set [3] in a line: Selectivity index, ratio of CC50 for African green monkey Vero cells to EC50 for PEDV infected in African green monkey Vero cells.
The test system of data set [4] is Porcine epidemic diarrhea virus. Nature of the data set: Antiviral activity against PEDV infected in African green monkey Vero cells assessed as suppression of GP6 neucleocapsid protein mRNA level after 24 hrs by RT-PCR analysis. It counts as functional, cell-based.
The test system is the same in data set [5]. Nature of the data set: Antiviral activity against PEDV infected in African green monkey Vero cells assessed as suppression of GP6 neucleocapsid protein expression after 24 hrs by Western blot analysis. It counts as functional, cell-based.
The test system is the same in data set [6]. Nature of the data set: Antiviral activity against PEDV infected in African green monkey Vero cells assessed as suppression of GP6 neucleocapsid protein expression after 24 hrs by FITC-based immunofluorescence assay. The format is functional, cell-based.
For data set [7] the test system is unchanged. Nature of the data set: Antiviral activity against PEDV infected in African green monkey Vero cells assessed as suppression of GP2 spike protein expression after 24 hrs by Western blot analysis. The format is functional, cell-based.
Data set [8] has the same test system. Nature of the data set: Antiviral activity against PEDV infected in African green monkey Vero cells assessed as suppression of GP5 neucleocapsid protein mRNA level after 24 hrs by RT-PCR analysis. The format is functional, cell-based.
The test system is the same in data set [9]. Nature of the data set: Antiviral activity against PEDV infected in African green monkey Vero cells assessed as suppression of GP2 spike protein expression at 5 uM after 24 hrs by Western blot analysis. It counts as functional, cell-based. (In western blotting, separated proteins are transferred to a membrane and probed.)
Data set [10] has the same test system. Nature of the data set: Antiviral activity against PEDV infected in African green monkey Vero cells assessed as suppression of GP2 spike protein mRNA level after 24 hrs by RT-PCR analysis. It counts as functional, cell-based.
The test system is the same in data set [11]. Nature of the data set: Antiviral activity against PEDV infected in African green monkey Vero cells assessed as suppression of GP6 neucleocapsid protein expression at 10 uM after 24 hrs by FITC-based immunofluorescence assay. It counts as functional, cell-based.

`C[C@@]1(C(=O)O)[C@@H](O)CC[C@]2(C)c3cc4c([nH]c5ccccc54)c(Cl)c3CC[C@@H]12`: the pEC50 in data set [1] was 4.89. Further, the CC50 at 48 h in data set [2] was 162 µM. Further, the “Ratio CC50/EC50” value in data set [3] amounted to 12.89.
On to `COC(=O)[C@]1(C)[C@@H](O)CC[C@]2(C)c3cc4c(cc3[C@@H](O)C[C@@H]12)[nH]c1ccccc14`, for which the Activity entry in data set [4], in data set [5], in data set [6], in data set [7], in data set [8] and in data set [9] was “Dose-dependent effect” throughout. Also, in data set [10], the Activity entry was “Dose-dependent effect”. Besides, the pEC50 in data set [1] is 6.03. The CC50 at 48 h in data set [2] is 56 µM. In data set [3], the “Ratio CC50/EC50” value was 60.31.
`COC(=O)[C@]1(C)[C@@H](O)CC[C@]2(C)c3cc4c(cc3C(=O)C[C@@H]12)[nH]c1ccccc14`: the pEC50 in [1] was 5.54. In data set [2], this molecule yielded a CC50 at 48 h of 98.7 µM. The “Ratio CC50/EC50” value in [3] is 34.63. Besides, the outcome in data set [9] and in data set [10] was Active.
With `O=c1cnn([C@@H]2O[C@H](CO)[C@@H](O)[C@H]2O)c(=O)[nH]1` [6-AZAURIDINE], the negative-log EC50 (pEC50) in data set [1] was 5.35. The same molecule yielded a CC50 at 48 h in data set [2] of 57.3 µM. In addition, the outcome in data set [11] and in data set [9] was Active. For the same molecule, in data set [3], the “Ratio CC50/EC50” value is 12.7.
Take `COC(=O)[C@]1(C)[C@@H](O)CC[C@]2(C)c3cc4c(cc3CC[C@@H]12)[nH]c1ccccc14`: the pEC50 in data set [1] is 5.24. The same molecule came in with a CC50 at 48 h in data set [2] of 103 µM. Further, in data set [3], the “Ratio CC50/EC50” value was found to be 18.09.
Turning to `C[C@@]1(C(=O)O)[C@@H](O)CC[C@]2(C)c3cc4c(cc3CC[C@@H]12)[nH]c1ccccc14` [XIAMYCIN], the pEC50 in data set [1] is 4.70. Besides, in data set [2], the CC50 at 48 h was 138 µM. Also, the “Ratio CC50/EC50” value in data set [3] is 7.
In the case of `C[C@@]1(C(=O)O)[C@@H](O)CC[C@]2(C)c3cc4c(cc3[C@@H](O)C[C@@H]12)[nH]c1ccccc14`, the pEC50 in [1] was 4.94. The molecule also showed a CC50 at 48 h in data set [2] of 76.9 µM. The “Ratio CC50/EC50” value in [3] amounted to 6.75.
